Laboratory results as given in US9434701B2, “Aminoquinoxaline derivatives for treatment of neurodegenerative diseases” (CENTRE NATIONAL DE LA RECHERCHE SCIENTIFIQUE (CNRS), priority 2011, dated 2016).
“Also recorded” adds a separate entry of the source.

What was measured:
[1] = influence of time before euthanasia, IP route: brain extract and plasma concentration; format: in vivo, C57BL\6J mice; settings: IP 70 mg/kg
Method: (§1) This study was done on C57BL\6J (instead of RjOrl:SWISS) mice treated with compound 4bc by IP or per os.
IP Route • Mice treated by IP route received a treatment of 70 mg/kg to […] of a solution of compound 4bc over 2 days comprising 2 IP injections the first day and 1 IP injection the second day.

[2] = toxicity: animal weight monitoring during per os treatment; format: in vivo
Method: (§2) Three groups were created: • mice who received the carrier orally at 10 mL/kg (Group V, n=4), • mice treated with compound 4bc orally at 150 mg/kg and at 10 mL/kg (Group T, n=6), • control mice who received no treatment (n=2). All the mice were treated or received the carrier twice daily for 4 days. On the 5th day, a last treatment was administered and the animals were euthanized between […]. after this last treatment according to the following plan:
The animals were weighed every day throughout the sub-chronic study in order to monitor their general condition. Animal weights were considered a good indicator of general health since a compound's toxicity is known to be characterized by loss of bodyweight over time.

[3] = passage of the blood-brain barrier, per os study: brain extract by HPLC-MS/MS; format: in vivo, Rj Orl: SWISS mice; settings: per os 150 mg/kg twice daily 4 days + last treatment day 5; euthanized 4 h to 6 h 40 after last treatment
Method: Male Rj Orl: SWISS, mice, approximately 5 weeks old and weighing between 20 and 24 g at arrival (R Janvier Breeding Center, France) were kept in the animal room at constant temperature (22±1° C.) and controlled humidity (55±20%), with a 12-hour light/dark cycle (8:00 a.m.-8:00 p.m.). During the acclimation and study period, the mice had free access to food and water. All the experiments were conducted in compliance with the conditions of decree 2001-464 of May 29, 2001 relative to animal experimentation.
The solution of compound 4bc at the concentration of 15.0 g/L to be administered was prepared in the following carrier: 0.5% Tween 80+99.5% carboxymethyl cellulose at 1%, in 0.9% NaCl in water.
as §2, with “plan: […]” for “plan:”
Detection and quantification, based on peak area, were done by HPLC-MS/MS in MRM mode.

[4] = system: dopaminergic neurons (TH+) of rat embryo ventral midbrain culture; test: dopaminergic neuron spontaneous degeneration model in culture, TH+ neuron count after 8 days (Schmidt et al. protocol); format: cell-based
Method: (§3) Quinoxaline derivatives were tested on a dopaminergic neuron spontaneous degeneration model in culture according to the protocol described in the article by F. Schmidt et al. […] This model consists of culturing rat embryo ventral midbrain. This part of the brain in culture contains a proportion of dopaminergic neurons of 5% of the total neurons; the other neurons are mainly GABAergic. These cultures are also composed of glial cells, i.e., astrocytes, oligodendrocytes and microglia. These cultures are characterized by progressive neuron death.

[5] = system: dopaminergic neurons (TH+) of rat embryo ventral midbrain culture; test: neuritogenic activity: neurite outgrowth per cell / differentiation of TH+ neurons; format: cell-based
Method: as §3, with “death. […] To assess the neuritogenic activity of compounds according to the invention, neurite outgrowth per cell was quantified using the Neurite Outgrowth software developed by Xplora Nova. At least 60 neurons per condition were photographed and studied.” for “death.”

[6] = influence of time before euthanasia, per os route: brain extract and plasma concentration; format: in vivo, C57BL\6J mice
Method: as §1
Mice treated per os received a treatment of 150 mg/kg to 10 mL/kg of a solution of compound 4bc over 5 days comprising twice daily administrations for 4 days and a once daily administration the last day.

[7] = per os 150 mg/kg, approximately 1 h 30 min
[8] = per os 150 mg/kg, approximately 2 h
[9] = per os 150 mg/kg, approximately 2 h 25 min

Which results are given for `Cc1nc2ccc(N)cc2nc1-c1ccccc1` [Compound 4bc]?
concentration at 1 h ([1]; C57BL\6J, mouse, brain extract, 3 injections over 2 days, euthanasia approximately 1 h after last treatment): 1000 ng/mL; Brain extract concentration ([1]; 3 injections over 2 days, euthanasia approximately 1 h after last treatment): 1 µg/mL; Plasma concentration ([1]; approximately 1 h): 1200 ng/mL; Brain extract concentration ([1]; approximately 1 h 30 min): 0.74 µg/mL; Plasma concentration ([1]; approximately 1 h 30 min): 3100 ng/mL; Brain extract concentration ([1]; approximately 1 h 55 min): 0.1 µg/mL; Plasma concentration ([1]; approximately 1 h 55 min): 1700 ng/mL; Brain extract concentration ([1]; approximately 2 h 20 min): 0.09 µg/mL; adverse reactions ([2]; oral, 300 mg/kg/day over a 5-day treatment): without adverse reactions; toxicity from animal weight gain ([2]; per os, 300 mg/kg/day, 5 days): absence of significant toxicity; detection in brain samples [3]: undetectable; activity on survival of dopaminergic neurons (in words) ([4]; 100 nM, compared with dbcAMP): nearly equal to the one induced by dbcAMP; activity at 0.1 µM ([4]; Rattus norvegicus, Neuron, 192 h, compound at 100 nM, 8 days of culture, read-out: TH+ neurons in % of control ± SEM): 140%; TH+ neuron differentiation / neuritogenic effect (in words, FIG. 1) ([5]; 100 nM, versus negative control): significant increase; also recorded: longer and more numerous neurite extensions; activity at 0.1 µM ([5]; Rattus norvegicus, Neuron, compound at 100 nM, read-out: Diff in % of control ± SEM): 142%; concentration at 1 h ([6]; C57BL\6J, mouse, brain extract, oral, per os 150 mg/kg over 5 days, approximately 1 h after last treatment): 2200 ng/mL; crossing of the blood-brain barrier in vivo ([6]; oral administration): able to cross the mouse or rat blood-brain barrier; Brain extract concentration ([6]; per os 150 mg/kg over 5 days, approximately 1 h after last treatment): 2.2 µg/mL; Plasma concentration ([6]; per os 150 mg/kg, approximately 1 h): 11600 ng/mL; Brain extract concentration [6, 7]: 0.2 µg/mL; Plasma concentration [6, 7]: 700 ng/mL; Brain extract concentration [6, 8]: 0.1 µg/mL; Plasma concentration [6, 8]: 40 ng/mL; Brain extract concentration [6, 9]: 0.05 µg/mL; Plasma concentration [6, 9]: 400 ng/mL
